Where a name gives a salt, the structure may show the parent alone. A value given as a limit tells only on which side of the number the result lay.

T1 sequence (Q93009 whole entry): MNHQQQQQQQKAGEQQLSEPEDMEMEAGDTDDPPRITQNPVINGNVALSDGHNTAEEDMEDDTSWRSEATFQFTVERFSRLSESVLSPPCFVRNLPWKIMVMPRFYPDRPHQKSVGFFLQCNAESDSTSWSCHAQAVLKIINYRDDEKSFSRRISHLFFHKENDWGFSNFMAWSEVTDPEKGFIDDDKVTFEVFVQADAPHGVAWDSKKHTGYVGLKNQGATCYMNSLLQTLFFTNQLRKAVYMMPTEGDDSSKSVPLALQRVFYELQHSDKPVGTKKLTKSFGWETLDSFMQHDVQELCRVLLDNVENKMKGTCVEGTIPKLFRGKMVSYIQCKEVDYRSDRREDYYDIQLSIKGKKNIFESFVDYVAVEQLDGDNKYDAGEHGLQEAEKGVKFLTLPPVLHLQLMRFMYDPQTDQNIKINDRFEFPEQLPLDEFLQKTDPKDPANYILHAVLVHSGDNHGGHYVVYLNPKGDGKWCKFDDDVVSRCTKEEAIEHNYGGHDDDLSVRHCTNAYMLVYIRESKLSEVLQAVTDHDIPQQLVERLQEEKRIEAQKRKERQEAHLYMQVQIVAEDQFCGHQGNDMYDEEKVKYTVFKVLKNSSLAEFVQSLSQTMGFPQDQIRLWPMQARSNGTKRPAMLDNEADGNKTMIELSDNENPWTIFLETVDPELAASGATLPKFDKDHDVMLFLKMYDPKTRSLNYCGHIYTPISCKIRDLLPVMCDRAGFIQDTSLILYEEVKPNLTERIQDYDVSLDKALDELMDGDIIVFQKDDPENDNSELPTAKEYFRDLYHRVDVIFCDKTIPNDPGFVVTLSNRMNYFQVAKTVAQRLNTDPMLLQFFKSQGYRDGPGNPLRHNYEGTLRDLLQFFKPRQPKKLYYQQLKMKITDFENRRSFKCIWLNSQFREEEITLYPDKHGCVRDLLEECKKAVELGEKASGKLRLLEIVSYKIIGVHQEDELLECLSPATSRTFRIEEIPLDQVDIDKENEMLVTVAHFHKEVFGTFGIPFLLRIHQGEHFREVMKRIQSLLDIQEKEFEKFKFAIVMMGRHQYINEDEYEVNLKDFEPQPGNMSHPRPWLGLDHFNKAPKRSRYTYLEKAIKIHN

The first assay has as its target T1, recombinant full-length USP7 (Homo sapiens, UniProt Q93009).
T1 construct: A 25 μl reaction volume containing recombinant full-length USP7 (62 pM)
In words: USP7-mediated ubiquitin-rhodamine cleavage assay. It is filed as biochemical. Particulars: recombinant full-length USP7 62 pM; ubiquitin-rhodamine 100 nM; 30-minute incubation with compound, 1 hour reaction at room temperature; read-out: Potency: USP7 IC50. Put shortly:
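IC50 values came from fluorescence measured after a 1 h room-temperature reaction of 62 pM enzyme with 100 nM ubiquitin-rhodamine, following 30 min compound preincubation; fits used four parameters.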
As for `Cc1cc(Cl)cc(-c2ccnc3cc(CN4C(=O)CCC4=O)sc23)c1OCC1(C#N)CNC1` [Example 12, 3-((4-Chloro-2-(2-((2,5-dioxopyrrolidin-1-yl)methyl)thieno[3,2-b]pyridin-7-yl)-6-methylphenoxy)methyl)azetidine-3-carbonitrile], the IC50 was less than 1000 nM.

Regarding `Cc1cc(Cl)cc(-c2ccnc3ccsc23)c1O[C@H]1CCCN(C)C1` [Example 240, (S)-7-(5-Chloro-3-methyl-2-((1-methylpiperidin-3-yl)oxy)phenyl)thieno[3,2-b]pyridine], the IC50 was greater than 30000 nM.

Turning to `CCC(O)c1cc2nccc(-c3cc(Cl)cc(C)c3OC3CCNC3=O)c2s1` (centres unmarked) [Example 87, 3-(4-Chloro-2-(2-(1-hydroxypropyl)thieno[3,2-b]pyridin-7-yl)-6-methylphenoxy)pyrrolidin-2-one], the IC50 lay within 10000 to 30000 nM.

As to `Cc1cc(Cl)cc(-c2ccnc3cc(CN4C(=O)CCC4=O)sc23)c1O[C@H]1CCNC[C@@H]1C` [Example 223, 1-((7-(5-Chloro-3-methyl-2-(((3S,4S)-3-methylpiperidin-4-yl)oxy)phenyl)thieno[3,2-b]pyridin-2-yl)methyl)pyrrolidine-2,5-dione], the IC50 was less than 1000 nM.

As to `C[C@H]1CNCC[C@H]1Oc1ccccc1-c1ccnc2cc(Cn3c(=O)ccn(CC(F)(F)F)c3=O)sc12` [Example 292, 3-[[7-[2-[[(3S,4R)-3-methyl-4-piperidyl]oxy]phenyl]thieno[3,2-b]pyridin-2-yl]methyl]-1-(2,2,2-trifluoroethyl)pyrimidine-2,4-dione], the IC50 is less than 1000 nM.

Turning to `Cc1cc(Cl)cc(-c2ccnc3cc(Cn4c(=O)ccn(CC(F)(F)F)c4=O)sc23)c1O[C@H]1CNCC[C@H]1C` [Example 280, 3-((7-(5-Chloro-3-methyl-2-(((3R,4R)-4-methylpiperidin-3-yl)oxy)phenyl)thieno[3,2-b]pyridin-2-yl)methyl)-1-(2,2,2-trifluoroethyl)pyrimidine-2,4(1H,3H)-dione], the IC50 is less than 1000 nM.

`COc1ccc(C(=O)O)cc1-c1ccnc2cc(Cn3c(=O)ccn(CC(F)(F)F)c3=O)sc12` [Example 290, 3-[2-[[2,6-dioxo-3-(2,2,2-trifluoroethyl)pyrimidin-1-yl]methyl]thieno[3,2-b]pyridin-7-yl]-4-methoxy-benzoic acid]: the IC50 was 1000 to 10000 nM.

Consider `N#Cc1cc(-c2ccnc3cc(CN4C(=O)CCC4=O)sc23)c(O[C@@H]2CNC[C@@H]2F)cc1F` [Example 135, 5-(2-((2,5-Dioxopyrrolidin-1-yl)methyl)thieno[3,2-b]pyridin-7-yl)-2-fluoro-4-(((3R,4S)-4-fluoropyrrolidin-3-yl)oxy)benzonitrile], for which the IC50 fell in the range of 1000 to 10000 nM.

For `Cc1cc(Cl)cc(-c2ccnc3cc(Cn4c(=O)ccn(C)c4=O)sc23)c1OC1CCN(C2COC2)CC1` [Example 255, 3-((7-(5-Chloro-3-methyl-2-((1-(oxetan-3-yl)piperidin-4-yl)oxy)phenyl)thieno[3,2-b]pyridin-2-yl)methyl)-1-methylpyrimidine-2,4(1H,3H)-dione], the IC50 was less than 1000 nM.

In the case of `Cc1cc(Cl)cc(-c2ncnc3cc(CN4C(=O)C5CCCC5C4=O)sc23)c1O[C@@H]1CNC[C@@H]1F` (stereo partly drawn) [Example 158, 2-((4-(5-Chloro-2-(((3R,4S)-4-fluoropyrrolidin-3-yl)oxy)-3-methylphenyl)thieno[3,2-d]pyrimidin-6-yl)methyl)tetrahydrocyclopenta[c]pyrrole-1,3(2H,3aH)-dione], the IC50 is less than 1000 nM.

On to `Cc1cc(Cl)cc(-c2ccnc3cc(Cn4c(=O)ccn(CC(F)(F)F)c4=O)sc23)c1O[C@H]1C[C@H](N2CCOCC2)C1` [Example 278, 3-((7-(5-Chloro-3-methyl-2-((1r,3r)-3-morpholinocyclobutoxy)phenyl)thieno[3,2-b]pyridin-2-yl)methyl)-1-(2,2,2-trifluoroethyl)pyrimidine-2,4(1H,3H)-dione], for which the IC50 is less than 1000 nM.

`Cc1cc(Cl)cc(-c2ccnc3cc(CCOC4=NS(=O)(=O)c5ccccc54)sc23)c1O[C@@H]1CNC[C@@H]1F` [Example 140, 3-(2-(7-(5-Chloro-2-(((3R,4S)-4-fluoropyrrolidin-3-yl)oxy)-3-methylphenyl)thieno[3,2-b]pyridin-2-yl)ethoxy)benzo[d]isothiazole 1,1-dioxide]: the IC50 lay within 10000 to 30000 nM.

Turning to `N#Cc1cc(Cl)c(O[C@@H]2CNC[C@@H]2F)c(-c2ccnc3cc(CN4C(=O)CCC4=O)sc23)c1` [Example 122, 3-Chloro-5-(2-((2,5-dioxopyrrolidin-1-yl)methyl)thieno[3,2-b]pyridin-7-yl)-4-(((3R,4S)-4-fluoropyrrolidin-3-yl)oxy)benzonitrile], the IC50 was less than 1000 nM.

The same assay, now with this note: recombinant full-length USP7 62 pM; ubiquitin-rhodamine 100 nM; 30-minute incubation, 1 hour reaction at room temperature; read-out: Potency (USP7 IC50).
As to `CCN1CC[C@@H](Oc2c(C)cc(Cl)cc2-c2ccnc3cc(Cn4c(=O)ccn(CC(F)(F)F)c4=O)sc23)[C@@H](C)C1` [Example 690, 3-[[7-[5-chloro-2-[[(3S,4R)-1-ethyl-3-methyl-4-piperidyl]oxy]-3-methyl-phenyl]thieno[3,2-b]pyridin-2-yl]methyl]-1-(2,2,2-trifluoroethyl)pyrimidine-2,4-dione], the IC50 is less than 1000 nM.

Staying with this assay, now noted: recombinant full-length USP7 62 pM; ubiquitin-rhodamine 100 nM; 30-minute pre-incubation, 1 hour reaction at room temperature; read-out: Potency (USP7 IC50).
In the case of `CCn1ccc(=O)n(Cc2cc3nccc(-c4cc(Cl)cc(C)c4O[C@@H]4CNC[C@@H]4F)c3s2)c1=O` [Example 452, 3-[[7-[5-chloro-2-[(3R,4S)-4-fluoropyrrolidin-3-yl]oxy-3-methyl-phenyl]thieno[3,2-b]pyridin-2-yl]methyl]-1-ethyl-pyrimidine-2,4-dione], the IC50 is less than 1000 nM.

For `Cc1cc(Cl)cc(-c2ccnc3cc(Cn4c(=O)ccn(C)c4=O)sc23)c1OC1CN2CCC1C2` [Example 529, 3-[[7-[2-[[(1R,3R,4S)-1-azabicyclo[2.2.1]heptan-3-yl]oxy]-5-chloro-3-methyl-phenyl]thieno[3,2-b]pyridin-2-yl]methyl]-1-methyl-pyrimidine-2,4-dione], the IC50 is less than 1000 nM.

Turning to `O=C1CCC(=O)N1Cc1cc2nccc(-c3cc(Cl)cc(C(F)F)c3O[C@@H]3CNC[C@@H]3F)c2s1` [Example 428, 1-[[7-[5-chloro-3-(difluoromethyl)-2-[(3R,4S)-4-fluoropyrrolidin-3-yl]oxy-phenyl]thieno[3,2-b]pyridin-2-yl]methyl]pyrrolidine-2,5-dione], the IC50 is less than 1000 nM.

`Cc1cc(Cl)cc(-c2ccnc3cc(Cn4c(=O)ccn(C5CCC5)c4=O)sc23)c1O[C@H]1CCCNC1` [Example 477, 3-[[7-[5-chloro-3-methyl-2-[[(3S)-3-piperidyl]oxy]phenyl]thieno[3,2-b]pyridin-2-yl]methyl]-1-cyclobutyl-pyrimidine-2,4-dione]: the IC50 is less than 1000 nM.

Turning to `Cc1cc(Cl)cc(-c2ncnc3cc(Cn4c(=O)ccn(C(C)C)c4=O)sc23)c1O[C@H]1CCCNC1` [Example 489, 3-[[4-[5-chloro-3-methyl-2-[[(3S)-3-piperidyl]oxy]phenyl]thieno[3,2-d]pyrimidin-6-yl]methyl]-1-isopropyl-pyrimidine-2,4-dione], the IC50 is less than 1000 nM.

Consider `O=C1CCC(=O)N1Cc1cc2nccc(-c3cc(Cl)cc(C(F)F)c3O[C@H]3CCCNC3)c2s1` [Example 432, 1-[[7-[5-chloro-3-(difluoromethyl)-2-[[(3S)-3-piperidyl]oxy]phenyl]thieno[3,2-b]pyridin-2-yl]methyl]pyrrolidine-2,5-dione dihydrochloride], for which the IC50 was less than 1000 nM.

What is called IC50 is the concentration that inhibits the measured activity by half.
